Measured values reported in patent publication US20230146239A1 (THE SCRIPPS RESEARCH INSTITUTE, priority 2020, published 2023).
Converted amounts (≈) assume the structure as drawn. Read-outs that look alike come from different tables or passages of the source.

Assays:
[1] = system: Sensitive S. aureus ATCC 25923; experiment: In vitro antimicrobial microdilution assay (MIC); assay type: cell-based, Staphylococcus aureus
Description: (§2) The lowest concentration of antibiotic (in μg/mL) capable of eliminating cell growth in the wells is the reported MIC value.

[2] = system: MRSA S. aureus ATCC 43300; experiment: microbe, parasite or virus in culture; assay type: cell-based, Staphylococcus aureus; settings: for MIC: Staphylococcus aureus, read-out: MIC, MRSA S. aureus ATCC 43300
Description: as §2

[3] = system: VanA VRE E. faecium (ATCC BAA2317); experiment: organism not typed; assay type: cell-based, Enterococcus faecium
Description: (§1) When NaH2PO4 or POPE was used instead of LTA, 10% brain-heart infusion broth containing 0.002% Tween®-80 with 100 μg/mL NaH2PO4 or 100 μg/mL POPE was used as the culture medium used for serial dilution. When additional G3 (H2N^+(CH2)3NHC(NH2)═NH2^+.2TFA) or Mg^2+ was used, 10% brain-heart infusion broth containing 0.002% Tween®-80 with 100 μg/mL G3 or 100 μg/mL MgCl2 and 100 μg/mL lipoteichoic acid was used as the culture medium for serial dilution of study group, 10% brain-heart infusion broth containing 0.002% Tween®-80 with 100 μg/mL G3 was used as the culture medium for serial dilution of control group.

[4] = system: VanB E. faecalis ATCC 51299; experiment: microbe, parasite or virus in culture; assay type: cell-based, Enterococcus faecalis; settings: for MIC: Enterococcus faecalis, ATCC51299, read-out: MIC, VanB E. faecalis ATCC 51299
Description: as §2

[5] = system: VanA VRE E. faecalis (BM 4166); experiment: Impact of added LTA, phosphate, POPE on antimicrobial activity (MIC); assay type: cell-based, Enterococcus faecalis; settings: for decrease of antimicrobial activity by added LTA: 100 μg/mL LTA, both VanA VRE strains
Description: as §1

[6] = system: VanA VRE E. faecalis BM 4166 and E. faecium ATCC BAA-2317; assay type: cell-based, Enterococcus faecalis, Enterococcus faecium; settings: 10 μM added at 5 minutes
Description: The above bacterial solution was subjected to a subculture to obtain fresh mid-log phase bacterial cells (incubation time=6 hours). The bacterial suspension was diluted to a total volume of 7 mL with OD600=0.6.
After the cultured bacteria were harvested (3000 rpm, 4° C., 20 minutes), the white bacterial precipitate was washed and resuspended in 5 mM glucose and 5 mM HEPES buffer (1:1, 5.00 mL, pH=7.2).

VanA E. faecium (TX2465) = experiment: In vitro antimicrobial microdilution assay (MIC); assay type: cell-based, Enterococcus faecium
Description: as §2

[7] = system: VanA E. faecalis (BM 4166); experiment: In vitro antimicrobial microdilution assay (MIC); assay type: cell-based, Enterococcus faecalis
Description: as §2

[8] = system: VanA E. faecalis (ATCC BAA-2573); experiment: In vitro antimicrobial microdilution assay (MIC); assay type: cell-based, Enterococcus faecalis
Description: as §2

[9] = system: VanA E. faecium (ATCC BAA-2317); experiment: In vitro antimicrobial microdilution assay (MIC); assay type: cell-based, Enterococcus faecium
Description: as §2

[10] = mice, earlier studies; cited from earlier work
[11] = mice, cited from earlier work; for AUC / CL / Cmax / Vd / t1/2 / tmax: iv, earlier study
[12] = system: VanA E. faecalis BM 4166 or ATCC BAA-2573; experiment: microbe, parasite or virus in culture; assay type: cell-based; settings: Enterococcus faecalis, ATCCBAA2573, read-out: MIC, VanA E. faecalis
Description: as §2

[13] = system: VanA VRSA strain VRS2 (S. aureus); settings: mouse, in vivo; cited from earlier work

CN[C@H](CC(C)C)C(=O)N[C@H]1C(=O)N[C@@H](CC(N)=O)C(=O)N[C@H]2C(=O)N[C@H]3C(=O)N[C@H](C(=O)N[C@H](C(=O)NCc4ccc(NC(=N)N)cc4)c4cc(O)cc(O)c4-c4cc3ccc4O)[C@H](O)c3ccc(c(Cl)c3)Oc3cc2cc(c3OC2OC(CO)C(O)[C@H](O)C2O[C@H]2CC(C)(NCc3ccc(-c4ccc(Cl)cc4)cc3)[C@H](O)[C@H](C)O2)Oc2ccc(cc2Cl)[C@H]1O (some centres unmarked) [Compound 19, GBn-CBP-vancomycin]
MIC ([1]; Staphylococcus aureus, ATCC25923; read-out: MIC, Sensitive S. aureus ATCC 25923): 0.04 µg/mL (≈ 0.0223 µM)
MIC [2]: 0.02 µg/mL (≈ 0.0111 µM)
MIC ([3]; read-out: MIC, +LTA): 2.5 µg/mL (≈ 1.39 µM)
MIC ([3]; read-out: MIC, −LTA): 0.3 µg/mL (≈ 0.167 µM)
MIC [4]: 0.04 µg/mL (≈ 0.0223 µM)
decrease of antimicrobial activity by added LTA [5]: 8 fold
MIC ([5]; read-out: MIC, +LTA): 5 µg/mL (≈ 2.78 µM)
MIC ([5]; read-out: MIC, −LTA): 0.6 µg/mL (≈ 0.334 µM)
bacterial cell membrane permeabilization [6]: strong membrane permeabilization

CN[C@H](CC(C)C)C(=O)N[C@H]1C(=O)N[C@@H](CC(N)=O)C(=O)N[C@H]2C(=O)NC3C(=O)N[C@H](C(=O)N[C@H](C(=O)NCc4ccc(NC(=N)N)cc4)c4cc(O)cc(O)c4-c4cc3ccc4O)[C@H](O)c3ccc(c(Cl)c3)Oc3cc2cc(c3OC2OC(CO)C(O)[C@H](O)[C@@H]2O[C@H]2CC(C)(N)[C@H](O)[C@H](C)O2)Oc2ccc(cc2Cl)[C@H]1O (some centres unmarked) [Compound 9, GBn-vancomycin]
MIC, Sensitive S. aureus ATCC 25923 [1]: 0.25 µg/mL (≈ 0.157 µM)
MIC, VanA E. faecium TX2465 (VanA E. faecium (TX2465)): 8 µg/mL (≈ 5.01 µM)
MIC, MRSA S. aureus ATCC 43300 [2]: 0.12 µg/mL (≈ 0.0752 µM)
MIC, +LTA ([3]; E. faecium ATCC BAA-2317, LTA 100 μg/mL): 4 µg/mL (≈ 2.51 µM)
MIC, −LTA ([3]; E. faecium ATCC BAA-2317, no LTA (0 μg/mL)): 4 µg/mL (≈ 2.51 µM)
MIC, VanA E. faecalis BM 4166 [7]: 16 µg/mL (≈ 10 µM)
MIC, VanA E. faecalis ATCC BAA-2573 [8]: 4 µg/mL (≈ 2.51 µM)
MIC, VanA E. faecium ATCC BAA-2317 [9]: 4 µg/mL (≈ 2.51 µM)
MIC, VanB E. faecalis ATCC 51299 [4]: 8 µg/mL (≈ 5.01 µM)
MIC, +LTA ([5]; E. faecalis BM 4166, LTA 100 μg/mL): 16 µg/mL (≈ 10 µM)
MIC, −LTA ([5]; E. faecalis BM 4166, no LTA): 16 µg/mL (≈ 10 µM)

CN[C@H](CC(C)C)C(=O)N[C@H]1C(=O)N[C@@H](CC(N)=O)C(=O)N[C@H]2C(=O)N[C@H]3C(=O)N[C@H](C(=O)N[C@H](C(=O)O)c4cc(O)cc(O)c4-c4cc3ccc4O)[C@H](O)c3ccc(c(Cl)c3)Oc3cc2cc(c3O[C@@H]2O[C@H](CO)[C@@H](O)[C@H](O)[C@H]2O[C@H]2C[C@](C)(N)[C@H](O)[C@H](C)O2)Oc2ccc(cc2Cl)[C@H]1O [Compound 1, vancomycin]
MTD [10]: 300 mg/kg
MIC ([1]; Staphylococcus aureus, ATCC25923, read-out: MIC, Sensitive S. aureus ATCC 25923): 0.5 µg/mL (≈ 0.345 µM)
MIC (VanA E. faecium (TX2465)): 250 µg/mL (≈ 173 µM)
MIC (VanA E. faecium (TX2465); Enterococcus faecium, read-out: MIC, VanA E. faecium TX2465): 250 µg/mL (≈ 173 µM)
terminal half-life (t1/2) ([11]; earlier studies): 30 to 78 min
AUC ([11]; 10 mg/kg): 21.8 µg·h/mL
CL ([11]; 10 mg/kg): 7.67 mL/min/kg
Cmax ([11]; 10 mg/kg): 62.8 µg/mL
Vd ([11]; 10 mg/kg): 0.34 L/kg
t1/2 ([11]; 10 mg/kg): 31.2 min
tmax ([11]; 10 mg/kg): 4.98 min
AUC ([11]; 300 mg/kg): 935 µg·h/mL
CL ([11]; 300 mg/kg): 5.33 mL/min/kg
Cmax ([11]; 300 mg/kg): 1665 µg/mL
Vd ([11]; 300 mg/kg): 0.62 L/kg
t1/2 ([11]; 300 mg/kg): 81 min
tmax ([11]; 300 mg/kg): 4.98 min
MIC [12]: 250 µg/mL (≈ 173 µM)
MIC [2]: 0.5 µg/mL (≈ 0.345 µM)
activity in the VRSA thigh infection model [13]: inactive
MIC ([3]; read-out: MIC, +LTA): 250 µg/mL (≈ 173 µM)
MIC ([3]; read-out: MIC, −LTA): 250 µg/mL (≈ 173 µM)
MIC ([7]; Enterococcus faecalis, read-out: MIC, VanA E. faecalis BM 4166): 250 µg/mL (≈ 173 µM)
MIC ([8]; Enterococcus faecalis, ATCCBAA2573, read-out: MIC, VanA E. faecalis ATCC BAA-2573): 125 µg/mL (≈ 86.3 µM)
MIC ([9]; Enterococcus faecium, ATCCBAA2317, read-out: MIC, VanA E. faecium ATCC BAA-2317): 250 µg/mL (≈ 173 µM)
MIC [4]: 8 µg/mL (≈ 5.52 µM)
decrease of antimicrobial activity by added LTA [5]: no difference
MIC ([5]; read-out: MIC, +LTA): 250 µg/mL (≈ 173 µM)
MIC ([5]; read-out: MIC, −LTA): 250 µg/mL (≈ 173 µM)
bacterial cell membrane permeabilization [6]: no permeabilization
